Test results: patent US20130071330A1, “METHODS OF IDENTIFYING AGENTS EFFECTIVE TO TREAT COGNITIVE DECLINE AND DISEASES ASSOCIATED THEREWITH” (priority 2010, published 2013)
Entries after “also recorded” stand apart in the source; their conditions may differ.

Columns and labels:
[1] = tested on: Abeta oligomer effects on membrane trafficking; test: MTT membrane trafficking (formazan exocytosis) assay with Abeta oligomers in mature primary neurons; type: cell-based, rat; settings: for block of Abeta oligomer-caused decrease of intracellular formazan-filled vesicles (puncta): neurons 3 weeks in vitro, for antibody stoichiometric amount (3 μM Aβ, 1.5 μM IgG), added prior to oligomers
Method: (§1) MTT assay Primary neurons from E18 Sprague-Dawley rat embryos were plated at optimized concentrations in 384 well plates in NB media (Invitrogen). Neurons were maintained in cultures for 3 weeks, with twice weekly feeding of NB media with N2 supplement (Invitrogen). Vehicle or Abeta oligomer preparations (1.5 uM), followed by compounds were added to cells and incubated for 1 to 24 hr at 37° C. in 5% CO2. MTT reagent (3-(4,5-dimethylthizaol-2-yl)-2,5diphenyl tetrazolium bromide) reagent (Roche Molecular Biochemicals) was reconstituted in phosphate buffered saline to 5 mg/ml. 10 ul of MTT labeling reagent was added to each well and incubated at 37° C. for 1 h, then imaged.
Each assay plate was formatted so that compounds were tested with and without Abeta on each plate.
Experimental controls: Abeta 1-42 oligomers were made and used as positive controls. The oligomers can be made by any method, such as published methods (Dhalgren et al., '02, LeVine '04, Shrestha et al., '06, Puzzo et al., '05, Barghorn et al., '05, Johansson et al., '06). […] Negative controls included vehicle-treated neurons as well as neurons treated with Compound Z. These controls, on each plate, serve as normalization tools to calibrate assay performance on a plate-by-plate basis.
Statistical software and Analysis: Data handling and analysis was accomplished by Cellomics VTI image analysis software and STORE automated database software. Statistical comparisons were made via pairwise Tukey-Kramer analysis to determine the significance of the separation between compound+Abeta oligomers from Abeta alone, and between compound alone from vehicle. […] Power analysis was set for a number of replicate screening wells that will minimize false negatives such as N=4. Rank ordering of compounds was done on the basis of secondary assay mechanism of action and physicochemical properties of the hit structures.
Abeta 1-42 oligomers made according to published methods (Dhalgren et al., '02, LeVine '04, Shrestha et al., '06, Puzzo et al., '05, Barghorn et al., '05, Johansson et al., '06) or isolated from human brain tissue (Walsh et al., '02, Lesne et al., '06, Shankar et al '08) served as positive controls. Toxicity was monitored in each image-based assay via quantification of nuclear morphology visualized with the DNA binding dye DAPI (Invitrogen). Nuclei that were fragmented were considered to be in late stage apoptosis (Majno and Joris '95). Peptide lots producing unusual peptide size ranges or significant toxicity at standard concentrations on neurons were rejected.
Image Processing: Images are captured and analyzed with the Cellomics VTI automated microscope platform. For statistical analysis, a Tukey-Kramer pair-wise comparison with unequal variance is used.
Primary rat neurons grown for at least 3 weeks in vitro were chosen as the basis for this screening assay. […] More complex systems such as acute or organotypic brain slices are very useful but not amenable to high throughput screening. […] For this reason, primary neuronal cultures were chosen because of their ability to be used in high throughput screens and fidelity to what occurs in vivo.
The exocytosis assay was adapted for use with mature primary neuronal cultures grown for 3 weeks in vitro.

mice = test: Fear conditioning assay (Abeta oligomer-induced memory deficit); type: in vivo
From the text: The formation of contextual memories is dependent upon the integrity of medial temporal lobe structures such as the hippocampus. […] Animals that show good learning will express an increase in freezing behavior when placed back into the same context. This freezing is absent in a novel context.

[2] = tested on: Abeta assemblies isolated from patients, membrane trafficking; test: Membrane trafficking assay with Abeta assemblies isolated from AD or normal patients; type: cell-based, rat; settings: FIG. 4
Method: as §1
Abeta assemblies were isolated from patients with Alzheimer's Disease (AD) or from normal patients. The Abeta assemblies were tested for their ability to modulate membrane trafficking. […] The assay was performed as described herein.

Compound: C[N+](C)(C)CCCCCC[N+](C)(C)C [hexamethonium bromide, reference compound]
- block of Abeta oligomer-caused decrease of intracellular formazan-filled vesicles (puncta) [1]: none were active

Compound: O[C@H]1[C@H](O)[C@@H](O)[C@H](O)[C@@H](O)[C@@H]1O [scyllo-inositol, reference compound]
- block of Abeta oligomer-caused decrease of intracellular formazan-filled vesicles (puncta) [1]: none were active

Compound: COc1cc(CCC(C)NCc2ccc(C(F)(F)F)cc2)ccc1O (centres unmarked) [Compound Z]
- block of oligomer-mediated memory deficits (contextual fear conditioning) (mice; 2 pmol dose, given prior to Abeta (200 nM), tested about 24 hours after training, p<0.05): completely blocked
- block of oligomer effects on memory, dose dependence (mice; administered prior to Abeta oligomer administration): blocked oligomer effects on memory in a dose-dependent manner
- adverse behavioral changes (mice; any dose): No adverse behavioral changes were observed
- effect of compound alone on memory (mice; without Abeta, data not shown): No effect
- EC50 ([1]; Neuron, read-out: inhibits oligomer effects on membrane trafficking, EC50, primary rat neurons, Abeta oligomers, FIG. 2B): 7 µM
- block of Abeta oligomer-caused decrease of intracellular formazan-filled vesicles (puncta) [1]: inhibits oligomer effects on membrane trafficking; also recorded: effective at stopping Abeta oligomer mediated effects on membrane trafficking
- effect on Abeta assemblies isolated from age-matched normal individuals ([2]; Abeta assemblies from age-matched normal individuals): no effect
- block of trafficking effects of AD-brain derived Abeta assemblies ([2]; IMW (10-100 KDa) Abeta assemblies isolated from AD patients): significantly blocked

Compound: C[C@]12N[C@H](Cc3ccccc31)c1ccccc12 [MK-801, reference compound]
- block of Abeta oligomer-caused decrease of intracellular formazan-filled vesicles (puncta) [1]: none were active
